Reference: PMC3461044, “Probing Protein Sequences as Sources for Encrypted Antimicrobial Peptides” (PLoS ONE, 2012)

Legend:
[1] = system: Phakopsora pachyrhizi spores; test: In situ germination inhibition of Phakopsora pachyrhizi spores on Glycine max leaves' surface; type: cell-based; settings: 8 µg/mL (3 µM) peptide co-incubated with 3.5×10^5/ml spores on G. max leaf disks, 7 days, 21°C; average of three experiments
Method: P. pachyrhizi spores were scraped off infected G. max leaves and were frozen at −80°C. Prior to the in situ assay, spores were dissolved in Mili-Q® water, incubated at 40°C for 40 min and quantified using a Neubauer chamber. […]. BR-16). Spores were then co-incubated with fifty microliters of a peptide solution at concentrations ranging from 8 to 128 µg/mL. Leaves were immediately placed on a Petri dish containing moist filter papers and incubated at 21°C under 12 h-photoperiod and photographed after 7 days. Images were used to measure the infected area using the QUANT v1.0.1 software.

[2] = system: Xanthomonas axonopodis pv. glycines; settings: in vitro growth
Method: MICs were determined using the M7-A6 protocol from the Clinical Laboratory Standards Institute (CLSI). […] Initial bacterium inoculum of ∼10^5 colony forming units/mL were transferred, along with serial 2-fold dilutions of each peptide to 96-well plates and incubated for 12 h. […] For each peptide concentration, optical density (OD600) readings were subtracted from that of the growth medium and divided by the positive control (100% bacterial growth). Inhibitory assays for X. axonopodis pv. glycines were conducted by the same methodology with longer incubation time (48 h).

Phakopsora pachyrhizi = test: Asian rust tolerance assay of transformed soybean plants; type: in vivo, Phakopsora pachyrhizi on Glycine max; settings: sprayed with 10^6 spores/mL, 15 days, control plants 45±8
Method: The gene encoding the peptide gb|ABM17058.1|(213–231), primary structure […], was synthesized by Epoch Life Science Inc. (Sugar Land, TX, USA) and cloned into the vector pBluKSPOXDCAHAS replacing the oxdc gene. The vector was used to transform soybean plants as previously described, [31]. Six intragenic soybean lines were tested for tolerance to Asian rust (Phakopsora pachyrhizi). The plants (20 plants per line at V3 stage) were sprayed with a spore suspension (10^6 spores/mL) and maintained in the greenhouse at room temperature and sprinkling 4 times a day. Leaves were photographed after 15 days and the number of pustules per square centimeter counted.

Sequence	infected area [1]	concentration that inhibited the in vitro growth of X. axonopodis pv. glycines [2]	number of uredia per foliar area (Phakopsora pachyrhizi; transformed G. max lineage 72.14.5, V3 stage)	number of uredia per foliar area (Phakopsora pachyrhizi; transformed G. max lineage 72.14.9, V3 stage)
RWRFLRKISSVHMFSVKALDDFRQL [Gm0025x00667(75–100)]	approximately 50 % of the control	5 µM	–	–
MIKAFKEATKVDKVVVLWTA [gb|ABM17058.1|(213–231), IAP, fragment of G. max D-myo-inositol 3-phosphate synthase; expressed in transformed soybean lineages 72.14.5 and 72.14.9]	–	–	7±3 pustules/cm^2	12±3 pustules/cm^2
